According to BindingDB's records for doi:10.1021/jm031016d (University of Athens, 2004):

How the values were obtained:
[1] = target: Glycogen synthase kinase-3 alpha/beta (Sus scrofa); assay: Kinase activities were assayed in buffers containing substrate, enzyme, and inhibitor at 30 °C in the presence of 15 uM ATP/ [gamma-32P] ATP. 32P incorporation was measured with a scintillation counter. The IC50 is the inhibitor concentration, which inhibits 50% of kinase activity that catalyzes the transfer of the terminal phosphate from 32P l
[2] = target: Cyclin-dependent kinase 1/G2/mitotic-specific cyclin-B (Marthasterias glacialis, UniProt P15206+Q9DGD3); assay: Kinase Inhibition Assay; details: 30 °C
[3] = target: T1, Cyclin-dependent kinase 5 activator 1 [99-307] (Homo sapiens, UniProt Q00535); assay: Kinase Inhibition Assay; details: 30 °C
T1 construct: 99-307
T1 sequence (Q15078 99-307): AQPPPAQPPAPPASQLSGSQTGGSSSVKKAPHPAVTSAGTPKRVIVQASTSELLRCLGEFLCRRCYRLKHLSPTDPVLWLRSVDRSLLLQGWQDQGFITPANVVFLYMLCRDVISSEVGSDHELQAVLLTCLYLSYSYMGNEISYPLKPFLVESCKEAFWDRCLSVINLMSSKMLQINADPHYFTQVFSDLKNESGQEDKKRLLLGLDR
T1 sequence (Q00535 whole entry): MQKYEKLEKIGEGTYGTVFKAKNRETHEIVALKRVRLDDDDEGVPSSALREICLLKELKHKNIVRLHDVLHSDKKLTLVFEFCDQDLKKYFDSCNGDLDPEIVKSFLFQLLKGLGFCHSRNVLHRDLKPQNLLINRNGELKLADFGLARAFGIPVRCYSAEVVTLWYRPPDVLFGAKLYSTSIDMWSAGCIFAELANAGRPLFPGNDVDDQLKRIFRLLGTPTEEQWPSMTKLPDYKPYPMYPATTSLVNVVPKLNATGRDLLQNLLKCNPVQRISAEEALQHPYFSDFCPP

Chain of Cyclin-dependent kinase 1/G2/mitotic-specific cyclin-B (Q9DGD3 whole entry): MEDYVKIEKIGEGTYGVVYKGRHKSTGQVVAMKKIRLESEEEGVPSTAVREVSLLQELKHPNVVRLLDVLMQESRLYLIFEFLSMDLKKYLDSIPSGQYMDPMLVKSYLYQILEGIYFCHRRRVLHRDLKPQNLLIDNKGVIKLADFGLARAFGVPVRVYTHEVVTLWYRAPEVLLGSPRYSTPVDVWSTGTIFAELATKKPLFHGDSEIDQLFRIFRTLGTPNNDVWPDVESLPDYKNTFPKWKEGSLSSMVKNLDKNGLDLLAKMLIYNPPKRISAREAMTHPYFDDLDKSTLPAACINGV
Chain of Cyclin-dependent kinase 1/G2/mitotic-specific cyclin-B (P15206 whole entry): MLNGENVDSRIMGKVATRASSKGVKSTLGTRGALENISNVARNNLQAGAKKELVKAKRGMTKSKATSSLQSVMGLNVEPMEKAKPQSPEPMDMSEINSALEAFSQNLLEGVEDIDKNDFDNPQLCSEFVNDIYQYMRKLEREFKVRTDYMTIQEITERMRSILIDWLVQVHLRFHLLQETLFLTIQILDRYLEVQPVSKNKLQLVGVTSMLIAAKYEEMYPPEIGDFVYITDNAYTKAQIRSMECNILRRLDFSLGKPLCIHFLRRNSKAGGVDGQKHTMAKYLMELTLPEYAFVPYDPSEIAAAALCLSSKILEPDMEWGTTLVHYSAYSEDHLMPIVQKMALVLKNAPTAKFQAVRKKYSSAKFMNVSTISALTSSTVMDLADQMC

| SMILES | IC50 [1] | IC50 [2] | IC50 [3] | IC50 ([2]; pH 7.2) |
| --- | --- | --- | --- | --- |
| CC(=O)ON=C1C(=C2C(=O)Nc3cc(I)ccc32)Nc2ccccc21 [(2 Z,3 E)-6-Iodoindirubin-3-acetoxime] | 13 nM | 2200 nM | 1300 nM |  |
| O=C1Nc2cc(Cl)c(Cl)cc2/C1=C1/Nc2ccccc2C1=O [(2 Z)-5,6-Dichloroindirubin] | 30 nM | 45000 nM | 60000 nM |  |
| C=Cc1ccc2c(c1)NC(=O)C2=C1Nc2ccccc2C1=NOC(C)=O [[(3E)-2-[(3Z)-6-ethenyl-2-oxo-2,3-dihydro-1H-indol-3-ylidene]-2,3-dihydro-1H-indol-3-ylidene]amino acetate] | 65 nM | 1600 nM | 400 nM |  |
| CN1C(=O)C(c2[nH]c3ccccc3c2N=O)c2ccccc21 (stereo not drawn) [3-[(2Z,3E)-3-(hydroxyimino)-2,3-dihydro-1H-indol-2-ylidene]-1-methyl-2,3-dihydro-1H-indol-2-one] | > 100000 nM | 73000 nM | > 100000 nM |  |
| CN1C(=O)/C(=C2\Nc3ccccc3C2=O)c2ccc(Br)cc21 [(2 Z)-6-Bromo-1-methylindirubin] | > 100000 nM |  | > 100000 nM | > 100000 nM |
| CO/N=C1/C(=C2/C(=O)Nc3cc(Br)ccc32)Nc2ccccc21 [(2 Z,3 E)-6-Bromoindirubin-3-methoxime] | 30 nM |  | 2200 nM | 3700 nM |
| O=C1Nc2cc(I)ccc2/C1=C1/Nc2ccccc2C1=O [6-iodoindirubin] | 55 nM |  | 5300 nM | 1600 nM |
| O=Nc1c(C2C(=O)Nc3cc(I)ccc32)[nH]c2ccccc12 (stereo not drawn) [6-iodoindirubin-3-oxime] |  |  | 300 nM |  |
| Cc1cc2c(cc1Br)NC(=O)C2c1[nH]c2ccccc2c1N=O (stereo not drawn) [6-bromo-3-[(2Z,3E)-3-(hydroxyimino)-2,3-dihydro-1H-indol-2-ylidene]-5-methyl-2,3-dihydro-1H-indol-2-one] |  |  | 130 nM |  |
| C=Cc1ccc2c(c1)NC(=O)/C2=C1\Nc2ccccc2C1=O [6-vinylindirubin] | 240 nM | 4200 nM | 2400 nM |  |
| O=C1Nc2cc(Br)ccc2/C1=C1/Nc2cc(Br)ccc2C1=O [(2 Z)-6,6 -Dibromoindirubin] | 4500 nM |  | > 100000 nM | > 100000 nM |
| CN1C(=O)/C(=C2\Nc3ccccc3C2=O)c2ccccc21 [1-methyl-3-[(2Z)-3-oxo-2,3-dihydro-1H-indol-2-ylidene]-2,3-dihydro-1H-indol-2-one] | > 100000 nM | > 100000 nM | > 100000 nM |  |
| O=C1Nc2cccc(Cl)c2/C1=C1/Nc2ccccc2C1=O [4-chloro-3-[(2Z)-3-oxo-2,3-dihydro-1H-indol-2-ylidene]-2,3-dihydro-1H-indol-2-one] | > 100000 nM | 10000 nM | 10000 nM |  |
| CC(=O)ON=C1C(=C2C(=O)Nc3cc(F)ccc32)Nc2ccccc21 [(2 Z,3 E)-6-Fluoroindirubin-3-acetoxime] |  |  | 300 nM |  |
| O=C1Nc2cc(Br)ccc2/C1=C1/Nc2ccccc2C1=O [6-bromo-3-[(2Z)-3-oxo-2,3-dihydro-1H-indol-2-ylidene]-2,3-dihydro-1H-indol-2-one] |  |  | 53000 nM |  |
| C=Cc1ccc2c(c1)NC(=O)C2c1[nH]c2ccccc2c1N=O (stereo not drawn) [6-vinylindirubin-3-oxime] | 60 nM | 1200 nM | 420 nM |  |
| O=Nc1c(C2C(=O)Nc3cc(Cl)ccc32)[nH]c2ccccc12 (stereo not drawn) [6-chloro-3-[(2Z,3E)-3-(hydroxyimino)-2,3-dihydro-1H-indol-2-ylidene]-2,3-dihydro-1H-indol-2-one] | 20 nM |  | 100 nM | 650 nM |
| O=Nc1c(C2C(=O)Nc3cc(Br)ccc32)[nH]c2cc(Br)ccc12 (stereo not drawn) [6-bromo-3-[(2Z,3E)-6-bromo-3-(hydroxyimino)-2,3-dihydro-1H-indol-2-ylidene]-2,3-dihydro-1H-indol-2-one] | 120 nM |  | 1300 nM | 17000 nM |
| CC(=O)ON=C1C(=C2C(=O)Nc3cc(Cl)ccc32)Nc2ccccc21 [6-chloroindirubin-3-acetoxime] | 17 nM |  | 200 nM | 30000 nM |
| O=Nc1c(C2C(=O)Nc3cc(Br)c([N+](=O)[O-])cc32)[nH]c2ccccc12 (stereo not drawn) [6-bromo-3-[(2Z,3E)-3-(hydroxyimino)-2,3-dihydro-1H-indol-2-ylidene]-5-nitro-2,3-dihydro-1H-indol-2-one] |  |  | 150 nM |  |
| O=C1Nc2cc(Cl)ccc2/C1=C1/Nc2ccccc2C1=O [6-chloro-3-[(2Z)-3-oxo-2,3-dihydro-1H-indol-2-ylidene]-2,3-dihydro-1H-indol-2-one] | 140 nM |  | > 100000 nM | > 100000 nM |
| CC(=O)ON=C1C(=C2C(=O)Nc3ccccc32)Nc2ccccc21 [[(3E)-2-[(3Z)-2-oxo-2,3-dihydro-1H-indol-3-ylidene]-2,3-dihydro-1H-indol-3-ylidene]amino acetate] |  |  | 700 nM |  |
| O=C1Nc2cc(Br)c([N+](=O)[O-])cc2[C+]1c1[nH]c2ccccc2c1[O-] [6-Bromo-5-nitroindirubin] | 100 nM | > 100000 nM | > 100000 nM |  |
| CN1C(=O)C(c2[nH]c3ccccc3c2N=O)c2ccc(Br)cc21 (stereo not drawn) [(2 Z,3 E)-6-Bromo-1-methylindirubin-3-oxime] | > 100000 nM |  | > 100000 nM | 92000 nM |
| O=C1Nc2cc(F)ccc2/C1=C1/Nc2ccccc2C1=O [6-fluoroindirubin] |  |  | 1000 nM |  |
| Cc1cc2c(cc1Br)NC(=O)/C2=C1\Nc2ccccc2C1=O [6-bromo-5-methylindirubin] | 25 nM | 30000 nM | 60000 nM |  |
| O=Nc1c(C2C(=O)Nc3cc(F)ccc32)[nH]c2ccccc12 (stereo not drawn) [6-fluoro-3-[(2Z,3E)-3-(hydroxyimino)-2,3-dihydro-1H-indol-2-ylidene]-2,3-dihydro-1H-indol-2-one] | 130 nM | 320 nM | 150 nM |  |
| CO/N=C1/C(=C2/C(=O)Nc3ccccc32)Nc2ccccc21 [3-[(2Z,3E)-3-(methoxyimino)-2,3-dihydro-1H-indol-2-ylidene]-2,3-dihydro-1H-indol-2-one] |  |  | 400 nM |  |
